Experimental data reported in ChEMBL document CHEMBL1201862, “PubChem BioAssay data set” (2004).
Values belong to the compound of their own block, whether it stands above or below them. Calls of active or inactive are those of the source.

What was measured:
[1] = molecular target: Troponin, cardiac muscle (Homo sapiens, UniProt P19429+P45379+P63316); test: Fluorescence-based biochemical high throughput dose response assay for activators of the calcium sensitivity of cardiac Regulated Thin Filaments (RTF). [Related pubchem assays (depositor defined):AID493008, AID493018, AID504382, AID504383]; type: protein-complex assay
[2] = molecular target: T1, Short transient receptor potential channel 4 (Mus musculus, UniProt Q9QUQ5); test: calcium entry via TRPC4 opening agents – cell-based, HEK293 TRPC4/mu-opioid, Fluo-4 calcium, dose response (AID 434937); type: functional
T1 sequence (Q9QUQ5 whole entry): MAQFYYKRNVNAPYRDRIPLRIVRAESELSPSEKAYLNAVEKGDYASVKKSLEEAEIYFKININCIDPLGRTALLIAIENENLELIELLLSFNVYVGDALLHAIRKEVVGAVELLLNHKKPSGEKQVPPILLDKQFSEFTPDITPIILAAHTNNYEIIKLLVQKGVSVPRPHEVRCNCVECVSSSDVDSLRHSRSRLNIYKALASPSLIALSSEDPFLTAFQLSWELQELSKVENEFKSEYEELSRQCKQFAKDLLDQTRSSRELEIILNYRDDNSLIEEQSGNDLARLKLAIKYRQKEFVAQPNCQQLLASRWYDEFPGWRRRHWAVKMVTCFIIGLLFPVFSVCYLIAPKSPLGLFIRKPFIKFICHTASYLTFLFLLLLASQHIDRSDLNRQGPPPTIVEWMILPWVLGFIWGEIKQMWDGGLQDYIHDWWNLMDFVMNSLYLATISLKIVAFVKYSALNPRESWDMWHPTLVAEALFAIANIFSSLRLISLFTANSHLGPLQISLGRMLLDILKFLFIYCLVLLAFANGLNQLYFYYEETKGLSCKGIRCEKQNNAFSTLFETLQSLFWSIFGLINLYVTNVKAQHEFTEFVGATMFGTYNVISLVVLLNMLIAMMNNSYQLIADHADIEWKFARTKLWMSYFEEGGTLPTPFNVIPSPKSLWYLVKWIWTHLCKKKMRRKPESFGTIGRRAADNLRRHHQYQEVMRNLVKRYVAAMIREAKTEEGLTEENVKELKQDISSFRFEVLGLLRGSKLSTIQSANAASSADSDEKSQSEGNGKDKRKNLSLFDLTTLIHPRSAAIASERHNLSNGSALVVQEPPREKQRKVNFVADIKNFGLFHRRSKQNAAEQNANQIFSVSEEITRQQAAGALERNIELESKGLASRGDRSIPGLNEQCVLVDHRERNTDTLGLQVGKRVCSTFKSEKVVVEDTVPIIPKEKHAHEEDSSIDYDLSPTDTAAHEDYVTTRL

[3] = molecular target: Large T antigen (Simian virus 40, UniProt P03070); type: functional, Betapolyomavirus macacae;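 also: Confirmatory-stage PubChem screen for compounds that inhibit SV40 T antigen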
Chain of Large T antigen (P03070 whole entry): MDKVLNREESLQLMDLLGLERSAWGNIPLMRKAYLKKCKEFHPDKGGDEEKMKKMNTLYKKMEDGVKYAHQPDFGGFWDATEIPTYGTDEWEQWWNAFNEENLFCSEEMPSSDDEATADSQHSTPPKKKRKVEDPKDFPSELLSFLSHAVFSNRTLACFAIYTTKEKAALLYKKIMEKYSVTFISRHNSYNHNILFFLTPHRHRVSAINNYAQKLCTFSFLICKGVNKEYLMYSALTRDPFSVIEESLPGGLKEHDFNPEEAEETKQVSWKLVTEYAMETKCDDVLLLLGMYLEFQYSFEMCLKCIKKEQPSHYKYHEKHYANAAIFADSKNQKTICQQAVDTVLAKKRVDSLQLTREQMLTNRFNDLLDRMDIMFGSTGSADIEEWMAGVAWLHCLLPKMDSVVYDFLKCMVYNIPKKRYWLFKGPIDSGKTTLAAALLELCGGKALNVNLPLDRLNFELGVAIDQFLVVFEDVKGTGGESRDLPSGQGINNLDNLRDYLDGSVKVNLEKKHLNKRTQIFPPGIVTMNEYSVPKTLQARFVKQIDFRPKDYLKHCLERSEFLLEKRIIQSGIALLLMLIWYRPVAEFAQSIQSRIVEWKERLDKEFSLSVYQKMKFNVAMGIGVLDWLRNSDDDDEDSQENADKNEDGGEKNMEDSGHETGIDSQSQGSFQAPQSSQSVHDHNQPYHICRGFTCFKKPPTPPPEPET

[4] = molecular target: DNA dC->dU-editing enzyme APOBEC-3G (Homo sapiens, UniProt Q9HC16); test: Dose Response confirmation of small molecule APOBEC3G DNA Deaminase Inhibitors via a fluorescence-based single-stranded DNA deaminase assay. [Related pubchem assays (depositor defined):AID493012, AID493028]; type: functional
Chain of DNA dC->dU-editing enzyme APOBEC-3G (Q9HC16 whole entry): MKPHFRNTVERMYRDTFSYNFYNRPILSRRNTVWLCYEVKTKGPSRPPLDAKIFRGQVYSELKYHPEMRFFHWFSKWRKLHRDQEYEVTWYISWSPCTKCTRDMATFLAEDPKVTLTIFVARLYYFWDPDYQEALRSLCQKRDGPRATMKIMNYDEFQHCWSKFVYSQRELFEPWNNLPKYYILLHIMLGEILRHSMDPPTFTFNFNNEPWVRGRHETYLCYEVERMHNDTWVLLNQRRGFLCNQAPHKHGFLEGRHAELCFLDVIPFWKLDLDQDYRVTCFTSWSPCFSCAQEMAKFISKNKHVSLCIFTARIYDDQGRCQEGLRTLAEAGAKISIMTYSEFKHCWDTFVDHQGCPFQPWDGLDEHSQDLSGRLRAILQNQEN

[5] = molecular target: DNA dC->dU-editing enzyme APOBEC-3A (Homo sapiens, UniProt P31941); test: A3A deaminase inhibition for selectivity – biochemical, dose response (AID 504722); type: functional
Chain of DNA dC->dU-editing enzyme APOBEC-3A (P31941 whole entry): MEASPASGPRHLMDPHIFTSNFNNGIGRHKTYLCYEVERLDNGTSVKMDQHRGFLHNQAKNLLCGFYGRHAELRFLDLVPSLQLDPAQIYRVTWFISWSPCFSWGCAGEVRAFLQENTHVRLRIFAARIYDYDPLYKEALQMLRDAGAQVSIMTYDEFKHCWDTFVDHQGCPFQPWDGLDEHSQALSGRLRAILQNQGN

[6] = molecular target: T2, Acyl-homoserine lactone acylase PvdQ (Pseudomonas aeruginosa (strain LESB58), UniProt Q9I194); test: PvdQ acylase enzyme activity blockers – biochemical, fluorescence, plate reader and imaging, cherry-picks, dose response (AID 493231)
T2 sequence (Q9I194 whole entry): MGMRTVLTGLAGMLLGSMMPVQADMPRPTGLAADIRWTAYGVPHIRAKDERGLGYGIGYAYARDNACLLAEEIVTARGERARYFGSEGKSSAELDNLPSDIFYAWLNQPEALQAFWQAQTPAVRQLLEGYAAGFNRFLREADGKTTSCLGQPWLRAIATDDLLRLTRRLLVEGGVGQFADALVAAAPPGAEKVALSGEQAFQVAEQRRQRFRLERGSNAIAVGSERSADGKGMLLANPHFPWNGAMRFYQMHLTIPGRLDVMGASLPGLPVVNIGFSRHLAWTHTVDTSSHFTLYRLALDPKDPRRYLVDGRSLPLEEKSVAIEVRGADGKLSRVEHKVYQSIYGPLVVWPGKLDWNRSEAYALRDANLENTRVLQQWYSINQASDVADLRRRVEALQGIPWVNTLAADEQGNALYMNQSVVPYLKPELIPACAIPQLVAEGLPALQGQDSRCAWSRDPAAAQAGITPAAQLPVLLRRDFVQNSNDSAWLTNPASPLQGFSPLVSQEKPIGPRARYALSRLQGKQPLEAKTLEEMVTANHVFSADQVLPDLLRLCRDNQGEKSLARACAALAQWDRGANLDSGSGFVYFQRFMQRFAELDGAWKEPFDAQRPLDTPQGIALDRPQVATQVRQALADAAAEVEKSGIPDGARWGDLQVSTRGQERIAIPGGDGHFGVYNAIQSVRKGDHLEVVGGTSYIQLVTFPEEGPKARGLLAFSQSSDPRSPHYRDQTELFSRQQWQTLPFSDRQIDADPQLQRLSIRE

[7] = molecular target: T3, Heat shock factor protein 1 (Mus musculus, UniProt P38532); test: decrease of HSF1-responsive luciferase luminescence – cell-based, NIH3T3, dose retest, confirmation (AID 2382); type: functional;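 also: NIH3T3 fibroblasts with HSF1-driven luciferase reporter stressed by proteasome inhibitor MG132; luminescence from HSF1-driven luciferase expression after 8 hours of MG132 stress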
T3 sequence (P38532 whole entry): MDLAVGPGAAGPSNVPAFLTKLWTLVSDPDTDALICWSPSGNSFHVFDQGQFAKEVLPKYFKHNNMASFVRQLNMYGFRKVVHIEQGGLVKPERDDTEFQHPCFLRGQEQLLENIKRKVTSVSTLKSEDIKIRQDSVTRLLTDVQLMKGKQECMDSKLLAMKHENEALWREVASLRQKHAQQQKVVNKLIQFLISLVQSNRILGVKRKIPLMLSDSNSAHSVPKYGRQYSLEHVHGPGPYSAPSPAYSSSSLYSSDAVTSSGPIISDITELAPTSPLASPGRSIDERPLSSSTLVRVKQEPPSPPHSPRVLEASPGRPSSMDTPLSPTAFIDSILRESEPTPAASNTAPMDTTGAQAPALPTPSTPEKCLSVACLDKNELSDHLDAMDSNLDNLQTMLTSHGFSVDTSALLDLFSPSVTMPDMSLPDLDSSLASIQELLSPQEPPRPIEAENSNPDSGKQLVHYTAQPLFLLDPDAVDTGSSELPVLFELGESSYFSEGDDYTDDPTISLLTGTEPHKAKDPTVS

[8] = test system: Escherichia coli; test: microbe, parasite or virus in culture
[9] = molecular target: FAD-linked sulfhydryl oxidase ALR (Homo sapiens, UniProt P55789); test: ALR-catalysed DTT oxidation blockers – biochemical, H2O2 detection, luminescence, cherry-pick, dose response (AID 493248)
Chain of FAD-linked sulfhydryl oxidase ALR (P55789 whole entry): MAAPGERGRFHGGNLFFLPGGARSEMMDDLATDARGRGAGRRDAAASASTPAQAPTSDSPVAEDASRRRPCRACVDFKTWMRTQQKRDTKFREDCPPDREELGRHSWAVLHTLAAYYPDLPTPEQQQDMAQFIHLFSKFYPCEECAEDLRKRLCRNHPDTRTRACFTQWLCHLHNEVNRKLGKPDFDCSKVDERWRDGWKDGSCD

[10] = molecular target: T4, High affinity choline transporter 1 (Homo sapiens, UniProt Q9GZV3); test: human choline transporter blockers, potency – cell-based, 5-point CRC, membrane potential dye, dose response (AID 504840); type: functional
T4 sequence (Q9GZV3 whole entry): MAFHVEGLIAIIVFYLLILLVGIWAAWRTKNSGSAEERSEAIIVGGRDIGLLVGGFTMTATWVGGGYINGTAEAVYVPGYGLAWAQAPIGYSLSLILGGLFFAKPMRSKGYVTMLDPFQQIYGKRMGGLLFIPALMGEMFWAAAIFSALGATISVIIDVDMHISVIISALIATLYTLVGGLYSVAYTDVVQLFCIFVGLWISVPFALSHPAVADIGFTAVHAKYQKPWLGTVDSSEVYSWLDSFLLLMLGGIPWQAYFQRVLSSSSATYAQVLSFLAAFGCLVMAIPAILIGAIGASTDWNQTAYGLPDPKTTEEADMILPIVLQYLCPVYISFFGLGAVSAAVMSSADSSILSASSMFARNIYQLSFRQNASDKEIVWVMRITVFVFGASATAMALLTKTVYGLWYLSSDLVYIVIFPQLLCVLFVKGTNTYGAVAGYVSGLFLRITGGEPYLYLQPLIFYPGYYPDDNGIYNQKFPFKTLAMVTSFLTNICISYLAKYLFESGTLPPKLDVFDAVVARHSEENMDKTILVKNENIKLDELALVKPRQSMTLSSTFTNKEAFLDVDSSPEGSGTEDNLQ

[11] = molecular target: T5, Estrogen receptor (Homo sapiens, UniProt P03372);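 also: potency for inhibiting coactivator peptide recruitment to the receptor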
T5 sequence (P03372 whole entry): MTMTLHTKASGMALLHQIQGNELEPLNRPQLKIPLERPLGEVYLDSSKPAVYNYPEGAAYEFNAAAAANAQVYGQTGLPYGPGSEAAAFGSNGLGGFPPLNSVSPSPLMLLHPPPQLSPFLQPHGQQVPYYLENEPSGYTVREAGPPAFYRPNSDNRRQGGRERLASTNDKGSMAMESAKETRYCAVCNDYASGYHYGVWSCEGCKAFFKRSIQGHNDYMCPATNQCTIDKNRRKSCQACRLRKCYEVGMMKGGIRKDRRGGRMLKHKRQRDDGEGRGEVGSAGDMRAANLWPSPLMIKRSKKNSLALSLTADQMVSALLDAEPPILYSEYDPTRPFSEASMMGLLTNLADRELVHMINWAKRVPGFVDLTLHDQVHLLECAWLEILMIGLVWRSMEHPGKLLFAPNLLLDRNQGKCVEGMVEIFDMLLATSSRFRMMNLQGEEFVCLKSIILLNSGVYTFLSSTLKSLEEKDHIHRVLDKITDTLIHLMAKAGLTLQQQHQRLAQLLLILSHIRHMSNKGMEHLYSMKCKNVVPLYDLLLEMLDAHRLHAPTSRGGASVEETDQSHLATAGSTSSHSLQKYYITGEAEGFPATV

[12] = molecular target: T6, Estrogen receptor beta (Homo sapiens, UniProt Q92731); test: blockers of SRC-3 recruitment to ERβ – biochemical, ELISA, streptavidin-HRP readout, orthogonal assay, confirmation (AID 1060)
T6 sequence (Q92731 whole entry): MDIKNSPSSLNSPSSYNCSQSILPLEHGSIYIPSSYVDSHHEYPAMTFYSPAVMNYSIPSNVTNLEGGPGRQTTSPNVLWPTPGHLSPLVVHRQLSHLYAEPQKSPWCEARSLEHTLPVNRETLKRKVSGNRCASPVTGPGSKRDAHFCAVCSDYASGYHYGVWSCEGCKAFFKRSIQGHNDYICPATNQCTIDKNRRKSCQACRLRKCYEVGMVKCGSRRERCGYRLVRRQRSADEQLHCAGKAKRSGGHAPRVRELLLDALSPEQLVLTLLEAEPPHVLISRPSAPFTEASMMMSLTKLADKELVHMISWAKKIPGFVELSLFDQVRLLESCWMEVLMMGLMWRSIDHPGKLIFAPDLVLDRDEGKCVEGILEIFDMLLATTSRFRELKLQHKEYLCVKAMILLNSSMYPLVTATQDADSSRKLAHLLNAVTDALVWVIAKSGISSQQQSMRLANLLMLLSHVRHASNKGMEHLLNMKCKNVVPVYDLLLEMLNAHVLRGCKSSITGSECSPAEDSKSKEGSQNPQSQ

[13] = molecular target: T6, Estrogen receptor beta
[14] = molecular target: Voltage-dependent T-type calcium channel subunit alpha-1H (Homo sapiens, UniProt O95180); type: functional;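 also: channel activity triggered by adding a high calcium stimulation buffer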
Chain of Voltage-dependent T-type calcium channel subunit alpha-1H (O95180 whole entry): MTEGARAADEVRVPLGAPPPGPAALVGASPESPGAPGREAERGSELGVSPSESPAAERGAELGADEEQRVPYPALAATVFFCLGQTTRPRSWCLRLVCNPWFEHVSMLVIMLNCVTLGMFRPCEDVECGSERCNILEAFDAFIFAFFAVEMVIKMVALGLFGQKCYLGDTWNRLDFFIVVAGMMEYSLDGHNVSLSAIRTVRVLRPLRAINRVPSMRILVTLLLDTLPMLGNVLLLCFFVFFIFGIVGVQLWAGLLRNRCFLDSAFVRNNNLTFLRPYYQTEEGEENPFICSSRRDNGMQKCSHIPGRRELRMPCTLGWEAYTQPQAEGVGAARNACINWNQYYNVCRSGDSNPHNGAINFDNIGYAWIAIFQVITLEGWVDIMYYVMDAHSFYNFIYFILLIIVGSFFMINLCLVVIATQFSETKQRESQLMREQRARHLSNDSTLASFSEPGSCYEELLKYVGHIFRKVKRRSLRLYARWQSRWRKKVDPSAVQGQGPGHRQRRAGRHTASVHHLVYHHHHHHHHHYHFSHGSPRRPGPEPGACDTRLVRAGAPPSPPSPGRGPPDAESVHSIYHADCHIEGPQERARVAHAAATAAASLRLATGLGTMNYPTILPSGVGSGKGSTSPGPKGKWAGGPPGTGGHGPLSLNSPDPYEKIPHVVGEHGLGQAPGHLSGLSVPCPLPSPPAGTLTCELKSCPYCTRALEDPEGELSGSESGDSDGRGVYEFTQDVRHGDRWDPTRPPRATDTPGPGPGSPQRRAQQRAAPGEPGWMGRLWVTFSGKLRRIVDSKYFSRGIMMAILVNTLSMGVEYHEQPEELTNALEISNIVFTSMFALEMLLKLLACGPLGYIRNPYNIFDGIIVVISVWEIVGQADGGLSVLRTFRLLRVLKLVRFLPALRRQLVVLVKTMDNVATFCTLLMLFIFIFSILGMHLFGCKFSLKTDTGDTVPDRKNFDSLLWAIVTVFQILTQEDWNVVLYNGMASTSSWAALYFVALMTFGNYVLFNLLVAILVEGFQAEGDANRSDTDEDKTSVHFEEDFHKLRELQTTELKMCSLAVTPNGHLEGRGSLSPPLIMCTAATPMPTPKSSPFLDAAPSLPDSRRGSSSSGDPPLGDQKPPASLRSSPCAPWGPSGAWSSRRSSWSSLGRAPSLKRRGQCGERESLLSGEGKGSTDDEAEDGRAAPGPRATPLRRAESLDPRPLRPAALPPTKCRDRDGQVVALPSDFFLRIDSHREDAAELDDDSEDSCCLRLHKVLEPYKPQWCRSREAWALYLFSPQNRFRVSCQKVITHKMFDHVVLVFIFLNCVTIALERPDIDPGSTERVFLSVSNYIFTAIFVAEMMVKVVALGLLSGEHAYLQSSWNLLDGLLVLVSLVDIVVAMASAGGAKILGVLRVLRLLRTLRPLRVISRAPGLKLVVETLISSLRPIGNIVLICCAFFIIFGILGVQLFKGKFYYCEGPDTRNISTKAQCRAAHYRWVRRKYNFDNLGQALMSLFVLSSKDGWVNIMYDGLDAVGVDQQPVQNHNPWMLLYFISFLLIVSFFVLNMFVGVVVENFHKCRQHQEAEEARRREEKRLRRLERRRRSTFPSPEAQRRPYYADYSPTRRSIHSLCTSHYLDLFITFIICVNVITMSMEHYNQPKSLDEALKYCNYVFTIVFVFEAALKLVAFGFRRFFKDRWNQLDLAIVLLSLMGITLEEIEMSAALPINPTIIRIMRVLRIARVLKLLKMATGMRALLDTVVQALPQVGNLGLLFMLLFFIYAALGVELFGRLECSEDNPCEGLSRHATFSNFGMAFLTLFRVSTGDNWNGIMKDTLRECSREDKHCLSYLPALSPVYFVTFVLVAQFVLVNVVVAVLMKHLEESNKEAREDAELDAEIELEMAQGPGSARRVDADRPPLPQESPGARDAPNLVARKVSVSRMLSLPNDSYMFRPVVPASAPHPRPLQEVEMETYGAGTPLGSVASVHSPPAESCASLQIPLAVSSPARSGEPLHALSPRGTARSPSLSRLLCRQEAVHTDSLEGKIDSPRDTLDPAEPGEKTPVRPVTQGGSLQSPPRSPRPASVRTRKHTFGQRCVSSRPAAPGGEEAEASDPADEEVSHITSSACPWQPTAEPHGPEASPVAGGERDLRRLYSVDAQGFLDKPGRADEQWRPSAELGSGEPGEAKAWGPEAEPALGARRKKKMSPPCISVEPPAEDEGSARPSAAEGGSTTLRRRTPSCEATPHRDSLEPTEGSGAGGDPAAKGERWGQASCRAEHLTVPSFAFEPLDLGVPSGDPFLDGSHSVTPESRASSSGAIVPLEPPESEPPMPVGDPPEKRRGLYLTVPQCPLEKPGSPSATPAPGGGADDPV

[15] = viability of HCT116 lacking mutant beta-catenin – cell-based, human colon tumor, dose response (AID 1045); type: functional;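 also: HCT116 colon tumor cells with beta catenin knocked out; cells exposed to compound for 60 hours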
[16] = viability of PTEN-deleted HCT116 cells – cell-based, HCT116 PTEN knockout, dose response (AID 1047); type: functional;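 also: HCT116 colon tumor cells with PTEN knocked out; cells exposed to compound for 60 hours before readout; potency for loss of cell viability measured by luminescence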

- EC50 [1]: > 71.4 µM (inactive)
SMILES: O=C(c1cnc2ccccc2n1)N1CCN(c2ccc(C(F)(F)F)cn2)CC1

- EC50 [2]: 3.35 µM (active)
SMILES: COc1c(C)cc(C(=O)C2CCCN(Cc3cccc4nccnc34)C2)cc1C (stereo unspecified)

SMILES: Fc1cccc(C2NCCc3[nH]cnc32)c1 (stereo unspecified)
- EC50 [2]: 3.76 µM (active)

SMILES: O=c1c2c3c(sc2n2c(S)nnc2n1-c1ccccc1)CCC3
- IC50 [3]: 30.4 µM (active)
- IC50 [4]: 3.72 µM (active)
- IC50 [5]: > 100 µM (inactive)

SMILES: CCCNS(=O)(=O)c1ccc(OC)c(Cl)c1Cl
- AC50 [6]: 8.91 µM (active)

SMILES: CCOC(=O)CSc1cc(CS(C)(=O)=O)nc(-c2ccccn2)n1
- EC50 [7]: > 195 µM (not active)
- AC50 [8]: 56.8 µM (active)

SMILES: Cn1c(S)nnc1-c1sc2ccccc2c1Cl
- IC50 [4]: 0.936 µM (active)
- IC50 [5]: > 100 µM (inactive)
- AC50 [9]: 12 µM (active)
- IC50 [10]: 8.32 µM (active)

- IC50 [11]: 33.3 µM (not active)
- IC50 [12]: 85.5 µM (not active)
- EC50 [1]: 2.02 µM (active)
- IC50 [13]: 12.7 µM (active)
SMILES: COc1ccc(NC2=NC(=O)S/C2=C\c2ccc(N(C)C)cc2)cc1

SMILES: Cn1cccc1C(C#N)c1cccc(F)c1C#N (stereo unspecified)
- AC50 [6]: 4.57 µM (active)

SMILES: O=[N+]([O-])c1ccc(N2CCCC2)nc1
- AC50 [6]: 5.4 µM (active)

- EC50 [14]: 6.13 µM (active)
- IC50 [10]: 19.1 µM (active)
SMILES: C=CCc1ccc(OCC(O)CN2CCC(Cc3ccccc3)CC2)c(OC)c1 (stereo unspecified)

- IC50 [10]: 13.8 µM (active)
SMILES: Cc1c(NC(=O)CSc2nnc(C(C)Oc3ccc(Cl)cc3)n2-c2ccccc2)c(=O)n(-c2ccccc2)n1C (stereo unspecified)

SMILES: O=C(/C=C/c1cccs1)c1cc(Cl)ccc1O
- AC50 [6]: 4.67 µM (active)

- EC50 [2]: 0.149 µM (active)
SMILES: COc1ccc2[nH]c(SCCN(C)C)nc2c1

- EC50 [1]: > 71.5 µM (inactive)
SMILES: O=C(Cn1cnc2c(cnn2-c2ccccc2)c1=O)Nc1ccc(S(=O)(=O)N2CCOCC2)cc1

SMILES: COc1ccc2c(c1)c(C(O)CN1CCC(Cc3ccccc3)CC1)c(C)n2C (stereo unspecified)
- AC50 [8]: 73.6 µM (active)

SMILES: N=c1n(Cc2ccccc2)c2ccccc2n1CC(O)COc1ccccc1 (stereo unspecified)
- EC50 [2]: 0.267 µM (active)
- EC50 [14]: 2.6 µM (active)
- EC50 [15]: 6.96 µM (active)
- EC50 [16]: 9.02 µM (active)
- IC50 [10]: 9.78 µM (active)
